From ChEMBL document CHEMBL4334516, “Kinase Chemodiversity from the Arctic: The Breitfussins” (J Med Chem, 2019)
Converted amounts (≈) assume the structure as drawn.

Experiments:
[1] = target: T1, Receptor-interacting serine/threonine-protein kinase 2 (Homo sapiens, UniProt O43353); assay: Inhibition of RIPK2 (unknown origin) assessed as residual enzyme activity at 50 uM by [33P]-ATP filter binding kinase assay relative to control
[2] = target: T2, Mitogen-activated protein kinase kinase kinase 7 (Homo sapiens) (UniProt O43318); assay: Inhibition of TAK1 (unknown origin) assessed as residual enzyme activity at 50 uM by [33P]-ATP filter binding kinase assay relative to control
T2 sequence (whole entry): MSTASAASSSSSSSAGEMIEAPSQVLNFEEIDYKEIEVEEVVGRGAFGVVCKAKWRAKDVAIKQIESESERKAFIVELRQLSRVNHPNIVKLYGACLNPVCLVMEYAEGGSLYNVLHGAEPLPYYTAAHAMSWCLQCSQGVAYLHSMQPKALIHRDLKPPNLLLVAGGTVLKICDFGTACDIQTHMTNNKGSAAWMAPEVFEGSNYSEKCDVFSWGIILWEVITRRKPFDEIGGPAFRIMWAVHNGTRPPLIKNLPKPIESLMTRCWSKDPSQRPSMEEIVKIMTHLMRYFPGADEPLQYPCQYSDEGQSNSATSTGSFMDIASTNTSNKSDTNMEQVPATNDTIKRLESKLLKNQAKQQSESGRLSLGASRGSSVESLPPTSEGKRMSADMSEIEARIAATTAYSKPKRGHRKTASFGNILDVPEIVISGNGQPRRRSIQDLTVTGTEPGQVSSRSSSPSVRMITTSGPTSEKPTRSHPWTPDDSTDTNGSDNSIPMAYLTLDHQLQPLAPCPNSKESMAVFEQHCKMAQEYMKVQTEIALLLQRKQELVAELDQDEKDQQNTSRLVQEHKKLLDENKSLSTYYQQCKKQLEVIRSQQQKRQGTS

[3] = target: Mitogen-activated protein kinase kinase kinase 9 (Homo sapiens, UniProt P80192); assay: Inhibition of MLK1 (unknown origin) assessed as residual enzyme activity at 50 uM by [33P]-ATP filter binding kinase assay relative to control
[4] = target: Myosin light chain kinase family member 4 (Homo sapiens) (UniProt Q86YV6); assay: Binding affinity to wild-type human partial length MYLK4 (V79 to S380 residues) expressed in bacterial expression system assessed as residual binding level at 10 uM by active-site directed competition binding assay based Kinomescan method relative to control
Sequence of Myosin light chain kinase family member 4 (Homo sapiens) (Q86YV6 whole entry, the tested form may be a part): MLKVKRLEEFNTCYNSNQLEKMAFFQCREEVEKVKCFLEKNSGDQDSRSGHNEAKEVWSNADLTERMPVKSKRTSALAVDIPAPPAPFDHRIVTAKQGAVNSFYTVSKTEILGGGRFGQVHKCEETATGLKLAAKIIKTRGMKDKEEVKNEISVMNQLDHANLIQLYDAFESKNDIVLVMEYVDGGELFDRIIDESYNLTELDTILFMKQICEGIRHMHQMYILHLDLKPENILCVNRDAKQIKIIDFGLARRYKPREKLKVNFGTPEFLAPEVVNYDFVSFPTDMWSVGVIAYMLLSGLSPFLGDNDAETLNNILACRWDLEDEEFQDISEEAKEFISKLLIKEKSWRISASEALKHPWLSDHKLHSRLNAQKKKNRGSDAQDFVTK

[5] = target: Serine/threonine-protein kinase pim-3 (Homo sapiens, UniProt Q86V86); assay: Binding affinity to wild-type human partial length PIM3 (G16 to A317 residues) expressed in bacterial expression system assessed as residual binding level at 10 uM by active-site directed competition binding assay based Kinomescan method relative to control
[6] = target: Serine/threonine-protein kinase pim-2 (Homo sapiens, UniProt Q9P1W9); assay: Binding affinity to wild-type human partial length PIM2 (M1 to E291 residues) expressed in bacterial expression system assessed as residual binding level at 10 uM by active-site directed competition binding assay based Kinomescan method
[7] = target: T1, Receptor-interacting serine/threonine-protein kinase 2; assay: Binding affinity to wild-type human partial length RIPK2 (M1 to K310 residues) expressed in bacterial expression system assessed as residual binding level at 10 uM by active-site directed competition binding assay based Kinomescan method relative to control
[8] = target: Tyrosine-protein kinase JAK1 (Homo sapiens, UniProt P23458); assay: Binding affinity to wild-type human partial length JAK1 JH2 domain-pseudokinase expressed in bacterial expression system by active-site directed competition binding assay based Kinomescan method
Sequence of Tyrosine-protein kinase JAK1 (P23458 whole entry, the tested form may be a part): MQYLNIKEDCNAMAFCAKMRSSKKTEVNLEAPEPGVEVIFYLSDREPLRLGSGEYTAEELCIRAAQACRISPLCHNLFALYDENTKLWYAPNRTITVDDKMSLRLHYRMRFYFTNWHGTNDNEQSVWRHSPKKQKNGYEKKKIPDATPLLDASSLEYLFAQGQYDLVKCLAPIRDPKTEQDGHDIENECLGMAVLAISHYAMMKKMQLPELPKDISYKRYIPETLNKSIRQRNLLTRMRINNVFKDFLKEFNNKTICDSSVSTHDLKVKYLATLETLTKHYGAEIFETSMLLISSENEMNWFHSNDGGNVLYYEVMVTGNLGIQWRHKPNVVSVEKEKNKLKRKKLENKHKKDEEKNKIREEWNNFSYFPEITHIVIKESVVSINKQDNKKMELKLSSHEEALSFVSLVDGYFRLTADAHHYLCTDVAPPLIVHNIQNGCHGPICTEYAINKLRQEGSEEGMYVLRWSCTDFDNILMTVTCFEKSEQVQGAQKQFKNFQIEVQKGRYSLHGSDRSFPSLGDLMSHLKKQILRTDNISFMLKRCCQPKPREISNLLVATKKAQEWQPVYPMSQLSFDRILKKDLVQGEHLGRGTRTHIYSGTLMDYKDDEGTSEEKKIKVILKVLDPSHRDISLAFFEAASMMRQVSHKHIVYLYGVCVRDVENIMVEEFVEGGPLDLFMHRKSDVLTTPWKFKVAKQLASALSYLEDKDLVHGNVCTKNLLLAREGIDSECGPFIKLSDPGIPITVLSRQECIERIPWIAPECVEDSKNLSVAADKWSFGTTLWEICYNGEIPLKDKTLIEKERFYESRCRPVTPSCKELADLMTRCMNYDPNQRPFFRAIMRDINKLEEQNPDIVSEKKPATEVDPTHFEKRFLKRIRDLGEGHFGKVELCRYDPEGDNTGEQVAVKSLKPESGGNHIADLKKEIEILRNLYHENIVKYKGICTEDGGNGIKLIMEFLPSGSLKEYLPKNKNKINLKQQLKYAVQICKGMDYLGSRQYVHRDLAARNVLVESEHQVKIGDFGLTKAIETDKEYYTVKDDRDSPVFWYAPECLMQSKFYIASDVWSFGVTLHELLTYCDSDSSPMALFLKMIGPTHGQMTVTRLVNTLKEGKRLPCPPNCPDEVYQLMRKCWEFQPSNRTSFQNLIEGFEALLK

[9] = target: 1-phosphatidylinositol 3-phosphate 5-kinase (Homo sapiens, UniProt Q9Y2I7); assay: Binding affinity to wild-type human partial length PIKFYVE (F1512 to C2098 residues) expressed in mammalian expression system by active-site directed competition binding assay based Kinomescan method
[10] = target: BMP-2-inducible protein kinase (Homo sapiens, UniProt Q9NSY1); assay: Binding affinity to wild-type human partial length BIKE (S34 to N329 residues) expressed in bacterial expression system by active-site directed competition binding assay based Kinomescan method
Sequence of BMP-2-inducible protein kinase (Q9NSY1 whole entry, the tested form may be a part): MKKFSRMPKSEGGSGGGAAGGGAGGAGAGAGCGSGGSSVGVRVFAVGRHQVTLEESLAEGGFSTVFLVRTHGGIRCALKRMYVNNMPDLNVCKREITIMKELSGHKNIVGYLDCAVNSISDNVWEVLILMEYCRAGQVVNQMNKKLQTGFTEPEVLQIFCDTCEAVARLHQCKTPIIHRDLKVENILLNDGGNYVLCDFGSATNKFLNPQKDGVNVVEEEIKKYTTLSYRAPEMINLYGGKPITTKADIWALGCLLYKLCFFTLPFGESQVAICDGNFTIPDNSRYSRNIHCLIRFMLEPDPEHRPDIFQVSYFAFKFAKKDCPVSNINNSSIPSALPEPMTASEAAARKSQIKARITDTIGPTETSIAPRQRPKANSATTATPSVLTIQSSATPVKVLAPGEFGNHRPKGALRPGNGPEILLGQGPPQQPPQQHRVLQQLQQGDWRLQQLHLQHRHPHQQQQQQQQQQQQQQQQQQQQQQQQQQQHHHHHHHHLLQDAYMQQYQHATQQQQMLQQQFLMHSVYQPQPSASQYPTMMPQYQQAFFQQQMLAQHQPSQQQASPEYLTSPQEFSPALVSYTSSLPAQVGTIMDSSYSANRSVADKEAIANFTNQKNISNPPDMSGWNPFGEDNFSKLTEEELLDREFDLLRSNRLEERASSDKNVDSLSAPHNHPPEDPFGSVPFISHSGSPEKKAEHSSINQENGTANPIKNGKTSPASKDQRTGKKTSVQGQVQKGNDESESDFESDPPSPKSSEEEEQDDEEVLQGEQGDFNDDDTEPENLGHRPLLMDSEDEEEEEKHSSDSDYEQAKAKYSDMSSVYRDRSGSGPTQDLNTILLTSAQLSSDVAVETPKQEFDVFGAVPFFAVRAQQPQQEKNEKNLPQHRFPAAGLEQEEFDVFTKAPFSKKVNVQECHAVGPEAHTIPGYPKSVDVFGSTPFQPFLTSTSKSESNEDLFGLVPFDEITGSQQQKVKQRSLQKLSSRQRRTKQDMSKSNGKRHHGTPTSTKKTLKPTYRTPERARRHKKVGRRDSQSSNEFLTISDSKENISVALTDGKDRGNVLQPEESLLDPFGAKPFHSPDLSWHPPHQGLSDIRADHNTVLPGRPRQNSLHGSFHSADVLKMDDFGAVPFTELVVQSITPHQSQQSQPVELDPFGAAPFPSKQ

[11] = target: Interleukin-1 receptor-associated kinase 3 (Homo sapiens, UniProt Q9Y616); assay: Binding affinity to wild-type human partial length IRAK3 (V147 to E596 residues) expressed in bacterial expression system by active-site directed competition binding assay based Kinomescan method
Sequence of Interleukin-1 receptor-associated kinase 3 (Q9Y616 whole entry, the tested form may be a part): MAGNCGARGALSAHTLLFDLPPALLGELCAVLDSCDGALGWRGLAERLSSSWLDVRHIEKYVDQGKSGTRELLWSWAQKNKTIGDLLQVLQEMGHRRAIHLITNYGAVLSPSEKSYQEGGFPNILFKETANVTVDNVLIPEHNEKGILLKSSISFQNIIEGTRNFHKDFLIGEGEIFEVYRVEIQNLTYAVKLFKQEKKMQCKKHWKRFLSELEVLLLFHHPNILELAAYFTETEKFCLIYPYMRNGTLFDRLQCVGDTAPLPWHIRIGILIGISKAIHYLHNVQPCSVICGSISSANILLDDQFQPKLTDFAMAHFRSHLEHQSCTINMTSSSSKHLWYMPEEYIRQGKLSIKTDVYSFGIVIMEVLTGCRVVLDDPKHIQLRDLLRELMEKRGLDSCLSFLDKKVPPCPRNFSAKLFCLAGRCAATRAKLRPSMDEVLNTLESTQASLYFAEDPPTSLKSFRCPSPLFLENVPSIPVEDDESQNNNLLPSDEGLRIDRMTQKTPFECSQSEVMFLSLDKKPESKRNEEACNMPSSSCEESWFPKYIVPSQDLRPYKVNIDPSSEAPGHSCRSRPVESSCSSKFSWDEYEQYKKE

[12] = target: Serine/threonine-protein kinase DCLK3 (Homo sapiens, UniProt Q9C098); assay: Binding affinity to wild-type human partial length DCAMKL3 (E140 to V628 residues) expressed in bacterial expression system by active-site directed competition binding assay based Kinomescan method
Sequence of Serine/threonine-protein kinase DCLK3 (Q9C098 whole entry, the tested form may be a part): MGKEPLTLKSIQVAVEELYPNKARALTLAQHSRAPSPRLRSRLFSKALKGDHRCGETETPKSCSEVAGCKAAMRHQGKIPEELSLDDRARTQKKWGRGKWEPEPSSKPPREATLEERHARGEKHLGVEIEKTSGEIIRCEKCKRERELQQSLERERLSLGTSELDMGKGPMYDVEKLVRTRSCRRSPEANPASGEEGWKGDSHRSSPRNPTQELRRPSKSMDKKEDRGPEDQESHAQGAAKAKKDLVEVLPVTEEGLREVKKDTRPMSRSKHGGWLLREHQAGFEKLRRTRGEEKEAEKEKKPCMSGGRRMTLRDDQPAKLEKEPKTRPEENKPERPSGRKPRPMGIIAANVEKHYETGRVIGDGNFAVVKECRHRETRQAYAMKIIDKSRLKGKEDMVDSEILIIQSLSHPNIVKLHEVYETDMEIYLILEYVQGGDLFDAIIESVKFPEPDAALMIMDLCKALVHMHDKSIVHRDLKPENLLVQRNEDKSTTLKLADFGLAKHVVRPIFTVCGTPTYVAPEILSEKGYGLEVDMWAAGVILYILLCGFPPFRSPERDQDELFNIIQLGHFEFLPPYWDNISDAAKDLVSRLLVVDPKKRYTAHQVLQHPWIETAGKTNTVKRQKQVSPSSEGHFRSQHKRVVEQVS

[13] = target: Receptor-type tyrosine-protein kinase FLT3 (Homo sapiens, UniProt P36888, N841I); assay: Binding affinity to human partial length FLT3 N841I mutant (V592 to Y969 residues) expressed in bacterial expression system by active-site directed competition binding assay based Kinomescan method
MDA-MB-468 = assay: Cytotoxicity in human MDA-MB-468 cells assessed as reduction in cell viability incubated for 72 hrs by SRB assay; conditions: MDA-MB-468, 72 h
MCF7 = assay: Cytotoxicity in human MCF7 cells assessed as reduction in cell viability incubated for 72 hrs by SRB assay; conditions: MCF7, 72 h
[14] = Cytotoxicity in human RD-ES cells assessed as reduction in cell viability incubated for 72 hrs by SRB assay
MDA-MB-436 = assay: Cytotoxicity in human MDA-MB-436 cells assessed as reduction in cell viability incubated for 72 hrs by SRB assay; conditions: MDA-MB-436, 72 h
[15] = target: cGMP-specific 3',5'-cyclic phosphodiesterase (Homo sapiens, UniProt O76074); assay: Inhibition of human recombinant phosphodiesterase type 5 using [3H]cGMP and cGMP incubated for 60 mins by scintillation counting method; conditions: 1 h
[16] = Toxicity in zebrafish embryos assessed as survival at 140 uM after 72 hrs (reference value: 95%); design: species or system Danio rerio; conditions: in vivo
[17] = Toxicity in zebrafish embryos assessed as induction of tail degeneration by measuring unaffected embryos level at 14 uM after 72 hrs (reference value: 100%); assay type: tissue-based, Danio rerio; conditions: in vivo
[18] = Toxicity in zebrafish embryos assessed as survival at 1.4 uM after 72 hrs (reference value: 95%); design: species or system Danio rerio; conditions: in vivo
[19] = Toxicity in zebrafish embryos assessed as induction of scoliosis by measuring unaffected embryos level at 1.4 uM after 72 hrs (reference value: 100%); design: species or system Danio rerio; conditions: in vivo
[20] = Toxicity in zebrafish embryos assessed as survival at 0.1 uM after 72 hrs (reference value: 95%); design: species or system Danio rerio; conditions: in vivo
[21] = Toxicity in zebrafish embryos assessed as induction of general edema by measuring unaffected embryos level at 0.1 uM after 72 hrs (reference value: 100%); design: species or system Danio rerio; conditions: in vivo
[22] = Stability in mouse liver microsomes supplemented with UDP-glucuronic acid assessed as parent compound remaining level at 5 uM incubated for 1 hr by LC-MS analysis; assay type: ADME, Microsome; conditions: read-out: Stability
[23] = Stability in mouse plasma assessed as parent compound remaining level at 5 uM incubated for 1 hr by LC-MS analysis; assay type: ADME, cell-free; conditions: read-out: Stability
[24] = Kinetic solubility in pH 7.4 aqueous buffer at 500 uM by spectrophotometry; assay type: physicochemical; conditions: read-out: Kinetic_solubility

T1 sequence (O43353 whole entry): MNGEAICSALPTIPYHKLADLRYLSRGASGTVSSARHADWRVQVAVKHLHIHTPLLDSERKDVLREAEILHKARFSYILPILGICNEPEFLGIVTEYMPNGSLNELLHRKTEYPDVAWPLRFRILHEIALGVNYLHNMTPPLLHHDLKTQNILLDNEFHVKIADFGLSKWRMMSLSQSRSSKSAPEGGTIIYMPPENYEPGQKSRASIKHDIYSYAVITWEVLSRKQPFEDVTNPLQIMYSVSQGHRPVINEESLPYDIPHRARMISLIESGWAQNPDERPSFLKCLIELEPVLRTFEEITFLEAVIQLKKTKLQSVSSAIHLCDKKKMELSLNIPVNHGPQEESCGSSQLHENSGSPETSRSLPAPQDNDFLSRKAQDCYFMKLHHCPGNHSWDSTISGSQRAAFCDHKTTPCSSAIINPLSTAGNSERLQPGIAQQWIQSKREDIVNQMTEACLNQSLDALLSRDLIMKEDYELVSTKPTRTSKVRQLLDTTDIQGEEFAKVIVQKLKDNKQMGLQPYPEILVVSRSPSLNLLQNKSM

COc1cc2c(-c3cnc(-c4ccc[nH]4)o3)c[nH]c2cc1Br
Activity [1]: 10% | Activity [2]: 7% | Activity [3]: 5% | Activity [4]: 0.25% | Activity [5]: 21% | Activity [6]: 54% | Activity [7]: 57% | Kd [8]: 1000 nM | Kd [9]: 1000 nM | Kd [10]: 1100 nM | Kd [11]: 1700 nM | Kd [12]: 1800 nM | Kd [13]: 8900 nM | IC50 (MDA-MB-468): 340 nM | IC50 (MCF7): 770 nM | IC50 [14]: 2500 nM | IC50 (MDA-MB-436): > 30000 nM | inhibition (INH) [15]: Active | survival at 72 h, 140 µM [16]: 0% | Activity [17]: 0% | survival at 72 h, 1.4 µM [18]: 45% | Activity [19]: 89% | survival at 72 h, 0.1 µM [20]: 100% | Activity [21]: 100% | remaining at 1 h, 5 µM [22]: 100% | remaining at 1 h, 5 µM [23]: 84% | solubility kinetic at 500 µM [24]: 156 µM (≈ 55.9 µg/mL)
